{
  "source": "paper PMC10402266",
  "about": "“Reaction hijacking inhibition of Plasmodium falciparum asparagine tRNA synthetase” (Research Square, 2023)",
  "type_in_all_cases": "biochemical",
  "key": {"[1]": {"target": "T1, PfAsnRS (Plasmodium falciparum cytoplasmic asparaginyl tRNA synthetase) (Plasmodium falciparum, UniProt O96198)", "T1 construct": "gene PF3D7_0211800; recombinant wildtype PfAsnRS, His-tag removed", "assay": "ATP consumption assay of recombinant enzyme"}, "[2]": {"target": "T1, PfAsnRS (Plasmodium falciparum cytoplasmic asparaginyl tRNA synthetase)", "assay": "ATP consumption assay of recombinant enzyme without tRNA, synthetic adduct"}, "[3]": {"target": "T2, PfAsnRS (Plasmodium falciparum cytoplasmic asparaginyl tRNA synthetase) (Plasmodium falciparum, UniProt O96198, R487S)", "T2 construct": "gene PF3D7_0211800; recombinant PfAsnRSR487S", "T2 sequence (O96198 1-610 R487S)": "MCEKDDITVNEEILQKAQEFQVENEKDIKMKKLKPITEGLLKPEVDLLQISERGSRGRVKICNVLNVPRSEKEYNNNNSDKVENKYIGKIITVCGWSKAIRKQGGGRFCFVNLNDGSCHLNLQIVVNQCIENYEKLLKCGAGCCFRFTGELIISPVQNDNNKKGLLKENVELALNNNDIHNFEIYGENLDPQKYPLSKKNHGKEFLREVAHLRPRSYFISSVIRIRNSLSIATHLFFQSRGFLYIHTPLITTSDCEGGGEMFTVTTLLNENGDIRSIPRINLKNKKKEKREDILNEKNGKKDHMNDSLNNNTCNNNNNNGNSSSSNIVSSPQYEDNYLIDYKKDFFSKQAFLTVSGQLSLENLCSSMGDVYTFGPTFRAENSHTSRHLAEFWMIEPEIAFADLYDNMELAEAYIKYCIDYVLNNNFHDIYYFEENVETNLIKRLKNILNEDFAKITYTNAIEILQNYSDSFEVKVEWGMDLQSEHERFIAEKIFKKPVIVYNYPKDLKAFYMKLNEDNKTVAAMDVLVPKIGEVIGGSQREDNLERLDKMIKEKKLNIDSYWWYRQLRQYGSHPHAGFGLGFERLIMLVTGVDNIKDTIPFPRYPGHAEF", "assay": "ATP consumption assay of recombinant mutant enzyme with tRNA"}, "[4]": {"target": "T1, PfAsnRS (Plasmodium falciparum cytoplasmic asparaginyl tRNA synthetase)", "assay": "ATP consumption assay of recombinant enzyme with tRNA; Asn adduct found by LC-MS"}},
  "note": "pIC50: −log10 of the molar value.",
  "data": [
    {"compound": "Nc1ncnc2c1ncn2[C@@H]1O[C@H](COS(N)(=O)=O)[C@@H](O)[C@H]1O", "note": "[AMS, adenosine 5’-sulfamate]", "values": [
      {"measurement": "pIC50", "setting": "[1]", "value": 8.43}
    ]},
    {"compound": "NC(=O)C[C@H](N)C(=O)NS(=O)(=O)c1cccc(-c2cc3ncnc(N)c3s2)c1", "note": "[Asn-OSM-S-106]", "values": [
      {"measurement": "IC50", "setting": "[2]", "value": "2.6 / 3.3 μM"}
    ]},
    {"compound": "Nc1ncnc2cc(-c3cccc(S(N)(=O)=O)c3)sc12", "note": "[OSM-S-106]", "values": [
      {"measurement": "pIC50", "setting": "[3]", "value": 4.58},
      {"measurement": "pIC50", "setting": "[4]", "value": 5.44}
    ]}
  ]
}
